Data: paper PMC10877416 (Translational Oncology, 2024)
Each block holds one molecule with its values, some of them ahead of it. Bridge positions count the residues as written; N and C are the ends. Square brackets hold non-standard residues; d marks the D form. Ends that are not written are not given here. Peptide text beside a SMILES is read from it. * marks the point of attachment. Biotin = O=C1N[C@H]2[C@H](CS[C@H]2CCCCC(=O)*)N1; Nle = CCCC[C@H](N)C(=O)O; Abu = CC[C@H](N)C(=O)O

Key:
Solubility in water = assay type: physicochemical
Description: To increase solubility, its sequence was elongated at the N- and C-terminals by adding hydrophilic amino acids from the protein sequence. […] These modifications were introduced to prevent the oxidation of methionine and cysteine.

PD-1 = target: T1, PD-1 (Homo sapiens, UniProt Q15116); experiment: SPR analysis: PD-1 titrated over immobilized biotinylated peptides or PD-L1; assay type: binding; conditions: SPR KD 198 µM versus 2.04 µM
T1 construct: purchased Recepton Company, Poland R1–001–03
T1 sequence (Q15116 25-288): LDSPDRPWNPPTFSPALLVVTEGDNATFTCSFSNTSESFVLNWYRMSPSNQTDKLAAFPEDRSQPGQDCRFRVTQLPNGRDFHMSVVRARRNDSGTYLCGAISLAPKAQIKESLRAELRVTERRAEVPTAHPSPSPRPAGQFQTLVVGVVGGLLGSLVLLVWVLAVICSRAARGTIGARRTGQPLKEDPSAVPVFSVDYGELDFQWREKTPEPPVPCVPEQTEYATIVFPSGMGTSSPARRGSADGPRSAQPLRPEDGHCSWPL

PD-1/PD-L1 complex = target: T2, PD-1/PD-L1 complex (Homo sapiens, UniProt Q15116); experiment: PD-1 T cell NF-κB::eGFP reporter co-culture assay; assay type: cell-based; conditions: PD-1 reporter cells + TCS CD86/PD-L1; peptide 150.00-5.56 µM; 90 min preincubation, 24 h co-culture; flow cytometry; normalized to PD-1 reporter/TCS CD86
T2 construct: expressed in transfected cells
T2 sequence (Q15116 25-288, one chain of several): as the sequence (Q15116 25-288) above

TCS Ctrl cells = experiment: Cell viability assay (CellTiter-Glo), TCS Ctrl cells; assay type: cell-based; conditions: highest tested concentration, 24 h
[1] = Peptide stability in RPMI 1640 medium with 10 % FBS; conditions: RPMI 1640 + 10 % heat-inactivated FBS; for Additional decrease in peptide content after 24 h of incubation: 37°C; for Stability in the medium: 0 and 24 h
Jurkat E6.1 cells = experiment: Cell viability assay (CellTiter-Glo), Jurkat E6.1 cells; conditions: 24 h; for Effect on Jurkat E6.1 cells at lower concentrations: concentrations below the highest tested (150.00 to 5.56 µM range); for Number of living, metabolically active Jurkat E6.1 cells: highest tested concentration (150.00 µM), normalized to untreated cells, three experiments in triplicate
[2] = test system: murine primary lymphocytes and Jurkat cells; conditions: cited from earlier work
Procedure: (§1) To better examine the potency of the PD-L1-derived peptides at the cellular level, competitive assays and stimulation assays were performed. […] These differences in obtained results may be due to the fact that in SPR and ELISA, the peptide is immobilized to the surface of the sensor or the plate, while it is in the solution in cellular assays. Moreover, the immobilization of the peptide may ...

[3] = test system: Jurkat E6.1 and HCT-116 cells; conditions: co-culture model with activated Jurkat E6.1 and HCT-116 cells; cited from earlier work
Procedure: as §1

PD-1 (Recepton) = target: T3, PD-1 (Recepton) (human, UniProt Q15116 25-170); experiment: SPR; Biacore T200; biotinylated peptides (~800 RU; L1 ~500 RU) or biotinylated PD-L1 immobilised on an SA sensor chip; PD-1 injected at 10 to 0.31 µM; PBS-P running buffer, 30 µl/min, 25°C; conditions: both partners purified
T3 construct: also called PD-1 protein; source: bought: Recepton Company, Poland, #R1–001–03
T3 sequence (Q15116 25-170): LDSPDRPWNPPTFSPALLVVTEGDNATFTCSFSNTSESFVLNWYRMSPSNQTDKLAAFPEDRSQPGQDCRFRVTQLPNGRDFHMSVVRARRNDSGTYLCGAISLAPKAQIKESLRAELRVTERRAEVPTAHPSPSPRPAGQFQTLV

[4] = pH 8.0, 100 μM peptide, RP-HPLC

KD of (L7) relative to (L11), fold weaker (PD-1): approximately 97 fold
Restoration of eGFP expression in the reporter assay (PD-1/PD-L1 complex): concentration-dependent effect
Molecule: CCCC[C@H](NC(=O)[C@H](CC)NC(=O)[C@H](CCCNC(=N)N)NC(=O)[C@H](Cc1ccc(O)cc1)NC(=O)[C@@H](NC(C)=O)C(C)C)C(=O)N[C@H](C(=O)N[C@@H](CO)C(=O)N[C@@H](Cc1ccc(O)cc1)C(=O)NCC(=O)NCC(=O)N[C@@H](C)C(=O)N[C@@H](CC(=O)O)C(=O)N[C@@H](Cc1ccc(O)cc1)C(=O)N[C@@H](CCCCN)C(=O)N[C@@H](CCCNC(=N)N)C(=O)N[C@H](C(=O)N[C@H](C(N)=O)[C@@H](C)O)[C@@H](C)CC)[C@@H](C)CC [Peptide L7] (HELM PEPTIDE1{[ac].V.Y.R.[Abu].[Nle].I.S.Y.G.G.A.D.Y.K.R.I.T.[am]}$$$$V2.0)

Decrease in the amount of peptide at 0 h compared to control ([1]; pH 8.0, 100 μM peptide, 0 h, RP-HPLC): approximately 10%
Additional decrease in peptide content after 24 h of incubation [1, 4]: ~11%
Stability in the medium ([1]; RP-HPLC): highest stability
Molecule: CCCC[C@@H]1NC(=O)[C@@H](NC(=O)[C@H](CCCNC(=N)N)NC(C)=O)CSSC[C@@H](C(=O)N[C@@H](CCCNC(=N)N)C(=O)N[C@H](C(N)=O)[C@@H](C)CC)NC(=O)[C@H](Cc2ccc(O)cc2)NC(=O)[C@H](CC(=O)O)NC(=O)[C@H](C)NC(=O)[C@H](CO)NC(=O)CNC(=O)[C@H](Cc2ccc(O)cc2)NC(=O)[C@H](CO)NC(=O)[C@H]([C@@H](C)CC)NC1=O [Peptide L12]
Effect on TCS Ctrl cell viability (TCS Ctrl cells): significant decrease in cell viability
Effect on Jurkat E6.1 cells at lower concentrations (Jurkat E6.1 cells): no negative effects at lower concentrations
Number of living, metabolically active Jurkat E6.1 cells (Jurkat E6.1 cells): 38%

Restoration of eGFP expression in the reporter assay (PD-1/PD-L1 complex): concentration-dependent effect
Amount of peptide at 0 h, relative to control ([1]; pH 8.0, 100 μM peptide, 0 h, RP-HPLC peak area vs peptide in H2O at 0 h, three independent experiments): 88%
Additional decrease in peptide content after 24 h of incubation [1, 4]: 12%
Stability in the medium ([1]; RP-HPLC): least concentration fluctuation
Molecule: CC(=O)N[C@@H](C)C(=O)N[C@@H](CC(=O)O)C(=O)N[C@@H](Cc1ccc(O)cc1)C(=O)N[C@@H](CCCCN)C(=O)N[C@@H](CCCNC(=N)N)C(N)=O [Peptide L15] (Ac-ADYKR-NH2)

Kd (PD-1 (Recepton)): 14.9 µM
Molecule: Biotin-GGGGGR[Abu][Nle]ISYGGADYKRI [biotin-GGGGG-PD-L1(113–126) (L8)]

Kd (PD-1 (Recepton)): 198 µM
Molecule: Biotin-GGGGGVYR[Abu][Nle]ISYGGADYKRIT [biotin-GGGGG-PD-L1(111–127) (L7)]

Kd (PD-1 (Recepton)): 22 µM
Molecule: Biotin-GGGGGGCYR[Abu][Nle]ISYGGADYKRICV (disulfide 7-23) [biotin-GGGGG-PD-L1(110–128)^(V111C-T127C) (L10)]

The next lines start with the molecule.

Molecule: CCCC[C@H](NC(=O)[C@H](CCC(=O)O)NC(=O)[C@H](Cc1c[nH]c2ccccc12)NC(=O)[C@H](Cc1ccc(O)cc1)NC(=O)[C@@H](NC(=O)[C@@H](NC(=O)[C@H](CC(C)C)NC(=O)[C@H](C)NC(C)=O)[C@@H](C)CC)C(C)C)C(=O)N[C@@H](CCC(=O)O)C(=O)N[C@@H](CC(=O)O)C(=O)N[C@@H](CCCCN)C(=O)N[C@@H](CC(N)=O)C(=O)N[C@H](C(=O)N[C@H](C(=O)N[C@@H](CCC(N)=O)C(=O)N[C@@H](Cc1ccccc1)C(=O)N[C@H](C(=O)N[C@@H](Cc1c[nH]cn1)C(=O)NCC(=O)N[C@@H](CCC(=O)O)C(=O)N[C@@H](CCC(=O)O)C(=O)N[C@@H](CC(=O)O)C(=O)N[C@@H](CC(C)C)C(=O)N[C@@H](CCCCN)C(=O)N[C@H](C(=O)N[C@@H](CCC(N)=O)C(=O)N[C@@H](Cc1c[nH]cn1)C(=O)N[C@@H](CO)C(N)=O)C(C)C)C(C)C)[C@@H](C)CC)[C@@H](C)CC [Peptide L4] (HELM PEPTIDE1{[ac].A.L.I.V.Y.W.E.[Nle].E.D.K.N.I.I.Q.F.V.H.G.E.E.D.L.K.V.Q.H.S.[am]}$$$$V2.0)
Solubility in water (Solubility in water): no positive effect on the solubility

Molecule: CCCC[C@H](NC(=O)[C@H](CCC(=O)O)NC(=O)[C@H](Cc1c[nH]c2ccccc12)NC(=O)[C@H](Cc1ccc(O)cc1)NC(=O)[C@@H](NC(=O)[C@@H](NC(=O)[C@H](CC(C)C)NC(=O)[C@H](C)NC(=O)[C@H](C)NC(=O)[C@H](CC(C)C)NC(=O)[C@H](CC(=O)O)NC(=O)[C@H](CC(C)C)NC(=O)[C@H](CCC(N)=O)NC(=O)[C@H](CCCCN)NC(=O)[C@H](CCC(=O)O)NC(C)=O)[C@@H](C)CC)C(C)C)C(=O)N[C@@H](CCC(=O)O)C(=O)N[C@@H](CC(=O)O)C(=O)N[C@@H](CCCCN)C(=O)N[C@@H](CC(N)=O)C(=O)N[C@H](C(=O)N[C@H](C(=O)N[C@@H](CCC(N)=O)C(=O)N[C@@H](Cc1ccccc1)C(=O)N[C@H](C(N)=O)C(C)C)[C@@H](C)CC)[C@@H](C)CC [Peptide L5] (HELM PEPTIDE1{[ac].E.K.Q.L.D.L.A.A.L.I.V.Y.W.E.[Nle].E.D.K.N.I.I.Q.F.V.[am]}$$$$V2.0)
Solubility in water (Solubility in water): no positive effect on the solubility

Molecule: CCCC[C@H](NC(=O)[C@H](CCC(=O)O)NC(=O)[C@H](Cc1c[nH]c2ccccc12)NC(=O)[C@H](Cc1ccc(O)cc1)NC(C)=O)C(=O)N[C@@H](CCC(=O)O)C(=O)N[C@@H](CC(=O)O)C(=O)N[C@@H](CCCCN)C(=O)N[C@@H](CC(N)=O)C(=O)N[C@H](C(=O)N[C@H](C(=O)N[C@@H](CCC(N)=O)C(N)=O)[C@@H](C)CC)[C@@H](C)CC [Peptide L6] (HELM PEPTIDE1{[ac].Y.W.E.[Nle].E.D.K.N.I.I.Q.[am]}$$$$V2.0)
Solubility in water (Solubility in water): no positive effect on the solubility

Molecule: CCCC[C@@H]1NC(=O)[C@@H](NC(=O)[C@H](CCCNC(=N)N)NC(C)=O)CSSC[C@@H](C(=O)N[C@@H](CCCNC(=N)N)C(=O)N[C@H](C(N)=O)[C@@H](C)CC)NC(=O)[C@H](Cc2ccc(O)cc2)NC(=O)[C@H](CC(=O)O)NC(=O)[C@H](C)NC(=O)[C@H](Cc2ccccc2)NC(=O)CNC(=O)[C@H](Cc2ccc(O)cc2)NC(=O)[C@H](CO)NC(=O)[C@H]([C@@H](C)CC)NC1=O [Peptide L13]
Effect on Jurkat E6.1 cells at lower concentrations (Jurkat E6.1 cells): no negative effects at lower concentrations
Number of living, metabolically active Jurkat E6.1 cells (Jurkat E6.1 cells): 3%

Molecule: GADYKRITVKVN [PL120131]
Apoptotic signal induced by sPD-L1 [2]: reverses the apoptotic signal

Molecule: RTMIWYpGAWYKRI [Peptide P1.3, Wang et al. peptide with D-proline in the loop and a tryptophan zipper]
IL-2 secretion [3]: has the ability to restore IL-2 secretion
